The test system of data set [1] is Setaria viridis. As to the kind of experiment: Upland soil treatment (Test Example 2). Format: in vivo. Conditions: soil surface treatment next day after sowing, wettable powder, 1 kg active ingredient per hectare, evaluated 21st day after application. In short, it runs like this: (§1)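 Applies a soil-surface, pre-emergence spray of 1 kg active ingredient/ha (wettable powder in water) one day after sowing; weed control and crop injury are rated on an index scale three weeks later.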

The subject of data set [2] is Chenopodium album. As to the kind of experiment: Upland soil treatment (Test Example 2). As to conditions: soil surface treatment next day after sowing, wettable powder, 1 kg active ingredient per hectare, evaluated 21st day after application. Format: in vivo. The method, boiled down:
as §1

The test system of data set [3] is Digitaria adscendens. As to the kind of experiment: Upland soil treatment (Test Example 2). Format: in vivo. Conditions: soil surface treatment next day after sowing, wettable powder, 1 kg active ingredient per hectare, evaluated 21st day after application. The method, boiled down:
as §1

For data set [4], the system named is Stellaria media. As to the kind of experiment: Upland soil treatment (Test Example 2). The data set is classed as in vivo. As to conditions: soil surface treatment next day after sowing, wettable powder, 1 kg active ingredient per hectare, evaluated 21st day after application. The method, boiled down: as §1
Data set [5] concerns Setaria viridis. As to the kind of experiment: Upland field foliage treatment (Test Example 1). The data set is classed as in vivo. As to conditions: foliage treatment 14th day after sowing, wettable powder, 1 kg active ingredient per hectare, evaluated 21st day after application. In short, it runs like this: (§2)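 Read-out is a visual index scored 21 days after treatment. Higher values mean more herbicidal effect on weeds and lower values mean better crop safety. Plants were raised from seed in upland soil and received a leaf-surface spray of 1 kg active ingredient per hectare at 14 days.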

Data set [6] relates to Chenopodium album. As to the kind of experiment: Upland field foliage treatment (Test Example 1). Format: in vivo. As to conditions: foliage treatment 14th day after sowing, wettable powder, 1 kg active ingredient per hectare, evaluated 21st day after application. The method, boiled down: as §2
For data set [7], the system named is Digitaria adscendens. Put plainly: Upland field foliage treatment (Test Example 1). The data set is classed as in vivo. Conditions: foliage treatment 14th day after sowing, wettable powder, 1 kg active ingredient per hectare, evaluated 21st day after application. In short, it runs like this: as §2
The test system of data set [8] is Stellaria media. Put plainly: Upland field foliage treatment (Test Example 1). Format: in vivo. Conditions: foliage treatment 14th day after sowing, wettable powder, 1 kg active ingredient per hectare, evaluated 21st day after application. The method, boiled down: as §2
In data set [9] the test system is wheat (Triticum aestivum). As to the kind of experiment: Upland soil treatment (Test Example 2), crop. The data set is classed as in vivo. Conditions: soil surface treatment next day after sowing, 1 kg active ingredient per hectare, evaluated 21st day, lower index = higher safety. In short, it runs like this:
as §1

The subject of data set [10] is soybean (Glycine max). Put plainly: Upland soil treatment (Test Example 2), crop. Format: in vivo. Conditions: soil surface treatment next day after sowing, 1 kg active ingredient per hectare, evaluated 21st day, lower index = higher safety. In short, it runs like this:
as §1

For the next data set, the system named is Ammannia multiflora. Put plainly: Paddy field treatment (Test Example 3). Format: in vivo. As to conditions: paddy pot, submerged 4 cm, dropped on water surface 10th day after transplantation, 1 kg active ingredient per hectare, evaluated 21st day. The method, boiled down: (§3)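 Pot test, flooded paddy soil (4 cm water); weeds sown, 2-leaf rice (Koshihikari) transplanted. Day 10 post-transplant: WP dropped on water, 1 kg a.i./ha. Score index at 21 d after application; higher = stronger herbicidal effect.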

Another data set deals with Scirpus juncoides. As to the kind of experiment: Paddy field treatment (Test Example 3). Format: in vivo. As to conditions: paddy pot, submerged 4 cm, dropped on water surface 10th day after transplantation, 1 kg active ingredient per hectare, evaluated 21st day. The method, boiled down: as §3
In the next data set the test system is Monochoria vaginalis. As to the kind of experiment: Paddy field treatment (Test Example 3). As to conditions: paddy pot, submerged 4 cm, dropped on water surface 10th day after transplantation, 1 kg active ingredient per hectare, evaluated 21st day. The data set is classed as in vivo. The method, boiled down:
as §3

Data set [11] relates to rice (Oryza sative, variety: Koshihikari). Put plainly: Paddy field treatment (Test Example 3), crop. As to conditions: transplanted rice two-leaf period, water surface treatment 10th day after transplantation, 1 kg active ingredient per hectare, evaluated 21st day, lower index = higher safety. The data set is classed as in vivo, Oryza sativa. In short, it runs like this: as §3

The subject of another data set is Echinochloa spp. Put plainly: Paddy field treatment (Test Example 3). Conditions: paddy pot, submerged 4 cm, dropped on water surface 10th day after transplantation, 1 kg active ingredient per hectare, evaluated 21st day. Format: in vivo, Echinochloa crusgalli. In short, it runs like this:
as §3

For data set [12], the system named is wheat (Triticum aestivum). Put plainly: Upland field foliage treatment (Test Example 1), crop. As to conditions: foliage treatment 14th day after sowing, 1 kg active ingredient per hectare, evaluated 21st day, lower index = higher safety. The data set is classed as in vivo. In short, it runs like this: as §2
In data set [13] the test system is soybean (Glycine max). The description is as above. Format: in vivo. As to conditions: foliage treatment 14th day after sowing, 1 kg active ingredient per hectare, evaluated 21st day, lower index = higher safety. The method, boiled down: as §2

Turning to `COC=C(Cn1nc(-c2cc(Cl)ccc2Cl)c(Cl)c1C)C(=O)OC` [Compound 22], the “Herbicidal activity Setaria viridis” value is 5 (herbicidal effect of not less than 90% by weight) in the data set on Setaria viridis [1]; 4 (herbicidal effect of not less than 70% by weight and less than 90% by weight) in the data set on Setaria viridis [5]. Also, the “Herbicidal activity Chenopodium album” value in the data set on Chenopodium album [2] and in the data set on Chenopodium album [6] was 5 (herbicidal effect of not less than 90% by weight) in each case. Moreover, the “Herbicidal activity Digitaria adscendens” value in the data set with Digitaria adscendens [3] and in the data set on Digitaria adscendens [7] was 5 (herbicidal effect of not less than 90% by weight) in each case. Further, the “Herbicidal activity Stellaria media” value in the data set with Stellaria media [4] and with Stellaria media [8] was 5 (herbicidal effect of not less than 90% by weight) throughout. In addition, the “Herbicidal activity Triticum aestivum” value in data set [9] was 0 (herbicidal effect of not less than 0% by weight and less than 10% by weight); in data set [12], 0 (herbicidal effect of not less than 0% by weight and less than 10% by weight). In addition, the “Herbicidal activity Glycine max” value is 0 (herbicidal effect of not less than 0% by weight and less than 10% by weight) in the data set on soybean (Glycine max) [10]; 0 (herbicidal effect of not less than 0% by weight and less than 10% by weight) in the data set with soybean (Glycine max) [13]. Also, the “Herbicidal activity Ammannia multiflora” value with Ammannia multiflora is on record as 5 (herbicidal effect of not less than 90% by weight). Also, in the data set with Scirpus juncoides, the “Herbicidal activity Scirpus juncoides” value is 5 (herbicidal effect of not less than 90% by weight). Moreover, the “Herbicidal activity Monochoria vaginalis” value with Monochoria vaginalis is 5 (herbicidal effect of not less than 90% by weight). The “Herbicidal activity Oryza sativa” value in data set [11] was 1 (herbicidal effect of not less than 10% by weight and less than 30% by weight). The “Herbicidal activity Echinochloa spp.” value with Echinochloa spp. is 5 (herbicidal effect of not less than 90% by weight).

In the case of `COC=C(Cn1nc(-c2c(Cl)cccc2Cl)c(Cl)c1C)C(=O)OC` [Compound 23], the “Herbicidal activity Setaria viridis” value was 4 (herbicidal effect of not less than 70% by weight and less than 90% by weight) in the data set with Setaria viridis [1]; 4 (herbicidal effect of not less than 70% by weight and less than 90% by weight) with Setaria viridis [5]. Also, the “Herbicidal activity Chenopodium album” value was 4 (herbicidal effect of not less than 70% by weight and less than 90% by weight) with Chenopodium album [2]; 4 (herbicidal effect of not less than 70% by weight and less than 90% by weight) with Chenopodium album [6]. The “Herbicidal activity Digitaria adscendens” value in the data set with Digitaria adscendens [3] is 4 (herbicidal effect of not less than 70% by weight and less than 90% by weight); in the data set on Digitaria adscendens [7], 4 (herbicidal effect of not less than 70% by weight and less than 90% by weight). Also, the “Herbicidal activity Stellaria media” value is 4 (herbicidal effect of not less than 70% by weight and less than 90% by weight) with Stellaria media [4]; 5 (herbicidal effect of not less than 90% by weight) in the data set with Stellaria media [8]. The “Herbicidal activity Triticum aestivum” value in data set [9] was 0 (herbicidal effect of not less than 0% by weight and less than 10% by weight); in [12], 0 (herbicidal effect of not less than 0% by weight and less than 10% by weight). Further, the “Herbicidal activity Glycine max” value in the data set with soybean (Glycine max) [10] is 0 (herbicidal effect of not less than 0% by weight and less than 10% by weight); with soybean (Glycine max) [13] it was 0 (herbicidal effect of not less than 0% by weight and less than 10% by weight). In addition, the “Herbicidal activity Ammannia multiflora” value in the data set with Ammannia multiflora was 5 (herbicidal effect of not less than 90% by weight). The “Herbicidal activity Scirpus juncoides” value in the data set on Scirpus juncoides was 3 (herbicidal effect of not less than 50% by weight and less than 70% by weight). In the data set on Monochoria vaginalis, the “Herbicidal activity Monochoria vaginalis” value is 4 (herbicidal effect of not less than 70% by weight and less than 90% by weight). In addition, in [11], the “Herbicidal activity Oryza sativa” value was 0 (herbicidal effect of not less than 0% by weight and less than 10% by weight). In the data set on Echinochloa spp., the “Herbicidal activity Echinochloa spp.” value was 3 (herbicidal effect of not less than 50% by weight and less than 70% by weight).

With `COC=C(Cn1nc(-c2ccc(Cl)c(Cl)c2)c(Cl)c1C)C(=O)OC` [Compound 24], the “Herbicidal activity Setaria viridis” value with Setaria viridis [1] was 4 (herbicidal effect of not less than 70% by weight and less than 90% by weight); in the data set with Setaria viridis [5], 4 (herbicidal effect of not less than 70% by weight and less than 90% by weight). Further, the “Herbicidal activity Chenopodium album” value in the data set on Chenopodium album [2] is 4 (herbicidal effect of not less than 70% by weight and less than 90% by weight); with Chenopodium album [6], 4 (herbicidal effect of not less than 70% by weight and less than 90% by weight). Also, the “Herbicidal activity Digitaria adscendens” value in the data set on Digitaria adscendens [3] is 4 (herbicidal effect of not less than 70% by weight and less than 90% by weight); in the data set with Digitaria adscendens [7] it was 4 (herbicidal effect of not less than 70% by weight and less than 90% by weight). Moreover, the “Herbicidal activity Stellaria media” value in the data set on Stellaria media [4] is 4 (herbicidal effect of not less than 70% by weight and less than 90% by weight); in the data set on Stellaria media [8], 4 (herbicidal effect of not less than 70% by weight and less than 90% by weight). Also, the “Herbicidal activity Triticum aestivum” value is 0 (herbicidal effect of not less than 0% by weight and less than 10% by weight) in data set [9]; 0 (herbicidal effect of not less than 0% by weight and less than 10% by weight) in [12]. The “Herbicidal activity Glycine max” value with soybean (Glycine max) [10] was 0 (herbicidal effect of not less than 0% by weight and less than 10% by weight); in the data set with soybean (Glycine max) [13], 0 (herbicidal effect of not less than 0% by weight and less than 10% by weight). Moreover, in the data set with Ammannia multiflora, the “Herbicidal activity Ammannia multiflora” value is 3 (herbicidal effect of not less than 50% by weight and less than 70% by weight). Moreover, in the data set on Scirpus juncoides, the “Herbicidal activity Scirpus juncoides” value is 3 (herbicidal effect of not less than 50% by weight and less than 70% by weight). The “Herbicidal activity Monochoria vaginalis” value in the data set on Monochoria vaginalis was 3 (herbicidal effect of not less than 50% by weight and less than 70% by weight). Besides, the “Herbicidal activity Oryza sativa” value in [11] was 0 (herbicidal effect of not less than 0% by weight and less than 10% by weight). In addition, in the data set with Echinochloa spp., the “Herbicidal activity Echinochloa spp.” value is 4 (herbicidal effect of not less than 70% by weight and less than 90% by weight).

Take `COC=C(Cn1nc(-c2cc(Cl)cc(Cl)c2)c(Cl)c1C)C(=O)OC` [Compound 25]: the “Herbicidal activity Setaria viridis” value in the data set with Setaria viridis [1] is 4 (herbicidal effect of not less than 70% by weight and less than 90% by weight); in the data set with Setaria viridis [5], 4 (herbicidal effect of not less than 70% by weight and less than 90% by weight). Also, the “Herbicidal activity Chenopodium album” value is 4 (herbicidal effect of not less than 70% by weight and less than 90% by weight) in the data set on Chenopodium album [2]; 4 (herbicidal effect of not less than 70% by weight and less than 90% by weight) in the data set with Chenopodium album [6]. The “Herbicidal activity Digitaria adscendens” value in the data set with Digitaria adscendens [3] is 4 (herbicidal effect of not less than 70% by weight and less than 90% by weight); in the data set with Digitaria adscendens [7] it was 4 (herbicidal effect of not less than 70% by weight and less than 90% by weight). Besides, the “Herbicidal activity Stellaria media” value in the data set with Stellaria media [4] is 4 (herbicidal effect of not less than 70% by weight and less than 90% by weight); in the data set on Stellaria media [8], 4 (herbicidal effect of not less than 70% by weight and less than 90% by weight). In addition, the “Herbicidal activity Triticum aestivum” value in data set [9] was 0 (herbicidal effect of not less than 0% by weight and less than 10% by weight); in data set [12], 0 (herbicidal effect of not less than 0% by weight and less than 10% by weight). Further, the “Herbicidal activity Glycine max” value with soybean (Glycine max) [10] is 0 (herbicidal effect of not less than 0% by weight and less than 10% by weight); in the data set on soybean (Glycine max) [13] it was 0 (herbicidal effect of not less than 0% by weight and less than 10% by weight). For the same compound, the “Herbicidal activity Ammannia multiflora” value in the data set on Ammannia multiflora was 3 (herbicidal effect of not less than 50% by weight and less than 70% by weight). Besides, the “Herbicidal activity Scirpus juncoides” value in the data set with Scirpus juncoides is 3 (herbicidal effect of not less than 50% by weight and less than 70% by weight). The “Herbicidal activity Monochoria vaginalis” value with Monochoria vaginalis was 3 (herbicidal effect of not less than 50% by weight and less than 70% by weight). Moreover, the “Herbicidal activity Oryza sativa” value in [11] is 0 (herbicidal effect of not less than 0% by weight and less than 10% by weight). Moreover, the “Herbicidal activity Echinochloa spp.” value in the data set on Echinochloa spp. was 3 (herbicidal effect of not less than 50% by weight and less than 70% by weight).

The values are drawn from US6809065B2, “Herbicide containing substituted pyrazole derivative as active ingredient” (SDS Biotech K.K., priority 2001, dated 2004).
